Like-named read-outs stand apart in the source and are kept apart here.

Experimental findings from patent US8871934B2, “Fluorene compound and pharmaceutical use thereof” (Japan Tobacco Inc., priority 2008, dated 2014) are described below.

For this test, the target named is human PDHK2 (hPDHK2) (Homo sapiens (Human), UniProt Q15119). Kind of test: Inhibitory action of PDHK activity in vitro (kinase reaction, residual PDH activity measured). The test is classed as biochemical.
Where [1] appears, read: PDHK inhibitory activity, class symbol of IC50.
The mark [2] stands for this setting: read-out: PDHK inhibitory activity IC50.
Where [3] appears, read: PDHK inhibitory activity (class symbol).

As for `Cn1cc(-c2cc(OCC(=O)N3CCC(CO)CC3)cc3c2-c2ccccc2C3(O)C(F)(F)F)cn1` (stereo not drawn) [compound 440], the IC50 by setting is: under setting [1], under 100 nM; under setting [2], 32 nM.
For `O=C(O)Cn1cc(-c2cc(Cl)c3c(c2)C(O)(C(F)(F)F)c2ccccc2-3)cn1` (stereo not drawn) [compound 516] the same measures were 100 to 1000 nM and 110 nM.
Consider `OC1(C(F)(F)F)c2ccccc2-c2ccc(N3CCCC3)cc21` (stereo not drawn) [compound 160], for which the IC50 is over 1000 nM under setting [1] and 2540 nM under setting [2].
On the same counts, the results for `O=C(COc1ccc2c(c1)C(O)(C(F)(F)F)c1ccccc1-2)N1CCOCC1` (stereo not drawn) [compound 362] are over 1000 nM and 1080 nM.
For `CC(C)n1cc(-c2cccc3c2-c2ccccc2C3(O)C(F)(F)F)cn1` (stereo not drawn) [compound 465] the same measures were under 100 nM and 61 nM.
For `Cn1cc(-c2cc(OCCCc3nnn[nH]3)cc3c2-c2ccccc2C3(O)C(F)(F)F)cn1` (single isomer, unassigned) [compound 573] the same measures were under 100 nM and 18 nM.
`CCN(C)C(=O)c1ccc2c(c1)C(O)(C(F)(F)F)c1ccccc1-2` (stereo not drawn) [compound 51]: the IC50 under setting [1] was over 1000 nM and the IC50 under setting [2] was determined as 2590 nM.
Take `C/C=C/c1cc(-c2cnn(C(CO)CO)c2)c2c(c1)C(O)(C(F)(F)F)c1ccccc1-2` (stereo not drawn) [compound 651]: the IC50 runs as follows: under setting [3], under 100 nM; under setting [2], 25 nM.
With `OCC(CO)n1cc(-c2cc(F)cc3c2-c2ccccc2C3(O)C(F)(F)F)cn1` (single isomer, unassigned; (+)) [compound 595, (+)-2-[4-(2-fluoro-9-hydroxy-9-trifluoromethyl-9H-fluoren-4-yl)-pyrazol-1-yl]-propane-1,3-diol], the half-maximal inhibitory concentration (IC50) reads like this: under setting [1], under 100 nM; under setting [2], 22 nM.
On the same counts, the results for `O=C(c1ccc2c(c1)C(O)(C(F)(F)F)c1ccccc1-2)N1CCC(O)C1` (stereo not drawn) [compound 215] are over 1000 nM and 4600 nM.
`CC(CO)(CO)n1cc(-c2cccc3c2-c2ccccc2C3(O)C(F)(F)F)cn1` (single isomer, unassigned) [compound 702]: the IC50 reads like this: under setting [3], under 100 nM; under setting [2], 30 nM.
On to `COC(=O)c1ccc2c(c1)-c1ccccc1C2(O)C(F)(F)F` (stereo not drawn) [compound 40], for which the IC50 reads like this: under setting [1], over 1000 nM; under setting [2], 2470 nM.
On the same counts, the results for `Nc1ccc2c(c1)C(O)(C(F)(F)F)c1ccccc1-2` (stereo not drawn) [compound 55] are over 1000 nM and 19800 nM.
On the same counts, the results for `O=C1CCC(COc2ccc3c(c2)C(O)(C(F)(F)F)c2ccccc2-3)N1CCO` (stereo not drawn) [compound 432] are 100 to 1000 nM and 247 nM.
`NC(=O)CCCCOc1ccc2c(c1)C(O)(C(F)(F)F)c1ccccc1-2` (stereo not drawn) [compound 306]: the IC50 was 100 to 1000 nM under setting [1] and 453 nM under setting [2].
On the same counts, the results for `O=C1CCCN1CCOc1ccc2c(c1)C(O)(C(F)(F)F)c1ccccc1-2` (stereo not drawn) [compound 359] are 100 to 1000 nM and 187 nM.
As for `CNC(=O)Cn1cc(-c2cc(C)cc3c2-c2ccccc2C3(O)C(F)(F)F)cn1` (stereo not drawn) [compound 512], the IC50 by setting is: under setting [1], under 100 nM; under setting [2], 38 nM.
For `Cn1cc(-c2cc(C(=O)N3CC3)cc3c2-c2ccccc2C3(O)C(F)(F)F)cn1` (stereo not drawn) [compound 414] the same measures were under 100 nM and 32 nM.
On to `NC(=O)c1cc(-c2cnn(CC3CCCCC3)c2)cc2c1-c1ccccc1C2(O)C(F)(F)F` (stereo not drawn) [compound 662], for which the IC50 was under 100 nM under setting [3] and 34 nM under setting [2].
`O=C(O)c1ccc(-c2ccc3c(c2)C(O)(C(F)(F)F)c2ccccc2-3)cc1` (stereo not drawn) [compound 188]: the half-maximal inhibitory concentration (IC50) was 100 to 1000 nM under setting [1] and 383 nM under setting [2].
For `COc1cnc2c(c1)C(O)(C(F)(F)F)c1ccccc1-2` (stereo not drawn) [compound 378] the same measures were 100 to 1000 nM and 703 nM.
Regarding `OCC(CO)c1noc(-c2cc(F)cc3c2-c2ccccc2C3(O)C(F)(F)F)n1` (single isomer, unassigned) [compound 685], the IC50 is, setting by setting: under setting [3], 100 to 1000 nM; under setting [2], 338 nM.
On to `OC1(C(F)(F)F)c2ccccc2-c2c(-c3cn[nH]c3)cccc21` (stereo not drawn) [compound 277], for which the IC50 is, setting by setting: under setting [1], 100 to 1000 nM; under setting [2], 125 nM.
In the case of `Cc1cc(-c2cnn(CC(C)(C)C(=O)O)c2)c2c(c1)C(O)(C(F)(F)F)c1ccccc1-2` (single isomer, unassigned) [compound 575], the concentration for half-maximal inhibition (IC50) was under 100 nM under setting [1] and 36 nM under setting [2].
For `Cn1cc(-c2cc(OCCC34CC5CC(CC(O)(C5)C3)C4)cc3c2-c2ccccc2C3(O)C(F)(F)F)cn1` (single isomer, unassigned) [compound 540] the same measures were under 100 nM and 16 nM.
For `OC1(C(F)(F)F)c2ccccc2-c2c(Cl)cc(F)cc21` (single isomer, unassigned; (+)) [Compound No. 526, (+)-4-chloro-2-fluoro-9-trifluoromethyl-9H-fluoren-9-ol], the half-maximal inhibitory concentration (IC50) by setting is: under setting [2], 397 nM; (read-out: PDHK inhibitory activity, class symbol of IC50) 100 to 1000 nM.
For the molecule `Cc1ccc(-c2cccc3c2-c2ccccc2C3(O)C(F)(F)F)cn1` (stereo not drawn) [compound 273], the IC50 runs as follows: under setting [1], 100 to 1000 nM; under setting [2], 396 nM.
For `O=C(O)CCn1cc(-c2cc(Cl)c3c(c2)C(O)(C(F)(F)F)c2ccccc2-3)cn1` (stereo not drawn) [compound 517] the same measures were under 100 nM and 57 nM.
On the same counts, the results for `CN(C)c1cccc2c1-c1ccccc1C2(O)C(F)(F)F` (stereo not drawn) [compound 84] are over 1000 nM and 42100 nM.
For `CC(C)c1cc(-c2cnn(C(CO)CO)c2)c2c(c1)C(O)(C(F)(F)F)c1ccccc1-2` (stereo not drawn) [compound 654], the IC50 was under 100 nM under setting [3] and 55 nM under setting [2].
Take `Oc1ccc2c(c1)C(O)(C(F)(F)F)c1ccccc1-2` (stereo not drawn) [compound 38]: the IC50 by setting is: under setting [1], over 1000 nM; under setting [2], 12000 nM.
On the same counts, the results for `O=C1NCCN1CCOc1ccc2c(c1)C(O)(C(F)(F)F)c1ccccc1-2` (stereo not drawn) [compound 469] are 100 to 1000 nM and 193 nM.
Take `COC(=O)c1cccc(-c2ccc3c(c2)C(O)(C(F)(F)F)c2ccccc2-3)c1` (stereo not drawn) [compound 154]: the IC50 was 100 to 1000 nM under setting [1] and 309 nM under setting [2].
For `O=C(c1cc(-c2cnn(CCO)c2)c2c(c1)C(O)(C(F)(F)F)c1ccccc1-2)N1CCCC1` (stereo not drawn) [compound 476] the same measures were under 100 nM and 53 nM.
On the same counts, the results for `OCCn1cc(-c2cccc3c2-c2ccccc2C3(O)C(F)(F)F)cn1` (stereo not drawn) [compound 411] are under 100 nM and 66 nM.
For `COC(=O)C1CCN1C(=O)c1ccc2c(c1)C(O)(C(F)(F)F)c1ccccc1-2` (stereo not drawn) [compound 304] the same measures were 100 to 1000 nM and 723 nM.
In the case of `CC(C)(C)COc1ccc2c(c1)C(O)(C(F)(F)F)c1ccccc1-2` (stereo not drawn) [compound 279], the IC50 under setting [1] was over 1000 nM and the IC50 under setting [2] is 1850 nM.
For the molecule `CC(C)(C)n1cc(-c2cc(CO)c3c(c2)C(O)(C(F)(F)F)c2ccccc2-3)cn1` (stereo not drawn) [compound 638], the IC50 runs as follows: under setting [3], 100 to 1000 nM; under setting [2], 127 nM.
In the case of `OC1(C(F)(F)F)c2ccccc2-c2ccc(OCc3cccs3)cc21` (stereo not drawn) [compound 261], the IC50 reads like this: under setting [1], over 1000 nM; under setting [2], 1400 nM.
For `O=C(O)COC1CN(C(=O)c2ccc3c(c2)C(O)(C(F)(F)F)c2ccccc2-3)C1` (stereo not drawn) [compound 107], the 50% inhibitory concentration (IC50) under setting [1] is over 1000 nM and the IC50 under setting [2] stood at 2610 nM.
For `N#Cc1cc(C(=O)N2CCC2)cc2c1-c1ccccc1C2(O)C(F)(F)F` (stereo not drawn) [compound 141] the same measures were under 100 nM and 77 nM.
On the same counts, the results for `OC1(C(F)(F)F)c2ccccc2-c2ccc(OCC3CC3)cc21` (stereo not drawn) [compound 256] are over 1000 nM and 1000 nM.
For `Nc1ccc2c(c1)-c1ccccc1C2(O)C(F)(F)F` (stereo not drawn) [compound 26] the same measures were over 1000 nM and 17600 nM.
For `CC1CCN(c2ccc3c(c2)C(O)(C(F)(F)F)c2ccccc2-3)C1` (stereo not drawn) [compound 269], the IC50 is over 1000 nM under setting [1] and 1340 nM under setting [2].
For `Cn1cc(-c2cc(OCC(N)=O)cc3c2-c2ccccc2C3(O)C(F)(F)F)cn1` (single isomer, unassigned) [compound 467] the same measures were under 100 nM and 18 nM.
For `COCc1ccc2c(c1)C(O)(C(F)(F)F)c1ccccc1-2` (stereo not drawn) [compound 75] the same measures were over 1000 nM and 6780 nM.
On the same counts, the results for `NC(=O)Cn1cc(-c2cccc3c2-c2ccccc2C3(O)C(F)(F)F)cn1` (stereo not drawn) [compound 493] are under 100 nM and 39 nM.
As to `OC1(C(F)(F)F)c2ccccc2-c2ccc(OC3CCCC3)cc21` (stereo not drawn) [compound 259], the IC50 reads like this: under setting [1], over 1000 nM; under setting [2], 1390 nM.
Consider `O=C(O)CCCOc1cc(-c2cncnc2)c2c(c1)C(O)(C(F)(F)F)c1ccccc1-2` (single isomer, unassigned) [compound 604], for which the IC50 runs as follows: under setting [3], under 100 nM; under setting [2], 35 nM.
For `CC(C)(C)Cn1cc(-c2cc(CO)c3c(c2)C(O)(C(F)(F)F)c2ccccc2-3)cn1` (single isomer, unassigned) [compound 660, 2-[1-(2,2-dimethyl-propyl)-1H-pyrazol-4-yl]-4-hydroxymethyl-9-trifluoromethyl-9H-fluoren-9-ol] the same measures were under 100 nM and 17 nM.
Turning to `COC(=O)c1cc(Cl)cc2c1-c1ccccc1C2(O)C(F)(F)F` (stereo not drawn) [compound 616], the IC50 was 100 to 1000 nM under setting [3] and 192 nM under setting [2].
Take `CN(CCO)C(=O)COc1ccc2c(c1)C(O)(C(F)(F)F)c1ccccc1-2` (stereo not drawn) [compound 366]: the half-maximal inhibitory concentration (IC50) is, setting by setting: under setting [1], over 1000 nM; under setting [2], 2170 nM.
On the same counts, the results for `CC(C)CCOc1ccc2c(c1)C(O)(C(F)(F)F)c1ccccc1-2` (stereo not drawn) [compound 276] are over 1000 nM and 1010 nM.
For `CN(C)C(=O)CCOc1ccc2c(c1)C(O)(C(F)(F)F)c1ccccc1-2` (stereo not drawn) [compound 303] the same measures were 100 to 1000 nM and 755 nM.

As usually defined, the IC50 is the concentration that inhibits the measured activity by half.
